Holding throughout (format): physicochemical
Data set [1] can be described thus: Moisture sorption by DVS moisture balance. To be noted: for Desorption / Sorption (moisture gain) / Hysteresis Cycle 1: 25° C. An excerpt: The crystalline 2-amino-7-(ethanimidoylamino)-2-methylhept-5-enoic acid 1.5 HCl is nonhygroscopic at and below 70% relative humidity. […] At 80% R.H. the gain was 18.5%, and at 90% R.H. the gain was 76.8%. The instrument cycled back to low relative humidity and the sample was removed then examined by polarized light microscopy. The sample was fully crystalline after removal from the moisture balance, but the crystallite size had increased. […] This salt form, 1.5 HCl has no solvation.

The nature of data set [2]: Solubility of the amorphate in solvents.
Data set [3] can be described thus: Analysis of amorphous material (hygroscopicity note at elemental analysis). The settings on record: observed at elemental analysis.

Several values for one entry are separate records, joined by “and”; a condition that tells them apart may be missing. Identical values can stand only once.

`CC(=N)NC/C=C\CC[C@](C)(N)C(=O)O.CC(=N)NC/C=C\CC[C@](C)(N)C(=O)O.Cl.Cl.Cl` [(2S,5Z)-2-amino-7-(ethanimidoylamino)-2-methylhept-5-enoic acid 1.5 HCl]: the Desorption came out at 13.02% in data set [1] (target RH 0.0%); 18.93% in data set [1] (target RH 20.0%); 22.72% in data set [1] (target RH 40.0%); 33.44% in data set [1] (target RH 60.0%); 67.59% in data set [1] (target RH 80.0%); 76.82% in data set [1] (target RH 90.0%). The “Sorption (moisture gain)” value is given as 0.00% in data set [1] (target RH 0.0%); 0.10% in data set [1] (target RH 10.0%); 0.16% in data set [1] (target RH 20.0%); 0.21% in data set [1] (target RH 30.0%); 0.26% in data set [1] (target RH 40.0%); 0.28% in data set [1] (target RH 50.0%). Also, the “Sorption (moisture gain)” value in data set [1] (target RH 60.0%) was 0.27%; in data set [1] (target RH 70.0%), 0.91%; in data set [1] (target RH 80.0%, HCl) it was 18.5% and 18.48%; in data set [1] (target RH 85.0%) it was 46.91%; in data set [1] (target RH 90.0%, HCl) it was 76.8% and 76.82%. Also, the “Hysteresis Cycle 1” value in data set [1] (target RH 20.0%) came to 18.77%; in data set [1] (target RH 40.0%) it was 22.46%; in data set [1] (target RH 60.0%) it was 33.16%; in data set [1] (target RH 80.0%) it was 49.10%. Also, the hygroscopicity entry in data set [1] (at and below 70% relative humidity) was “nonhygroscopic”.

Turning to `CC(=N)NC/C=C\CCC(C)(N)C(=O)O` (stereo in doubt) [(2S,5Z)-2-amino-7-(ethanimidoylamino)-2-methylhept-5-enoic acid], the solubility entry in data set [2] (dry solvents: acetone, MEK, methyl isobutyl ketone, THF, ethyl acetate, chloroform, methylene chloride, hexanes, cyclohexane, di-isopropyl ether, acetonitrile, toluene) is given as “less than one”; in data set [2] (in isopropanol and solvents containing water: 10% water in THF, water saturated ethyl acetate, 10% water in acetonitrile, higher alcohols with water), “soluble”; in data set [2] (in water, methanol and ethanol), “freely soluble”. Further, the hygroscopicity entry in data set [3] is on record as “(Note: Material appears to be hygroscopic - elemental”.

Source of the values: US6998503B2, “Crystalline solid form of (2S,5Z)-2-amino-7-(ethanimidoylamino)-2-methylhept-5-enoic acid” (Pharmacia Corporation, priority 2002, dated 2006).
